Like-named read-outs stand apart in the source and are kept apart here.
Experiments:
BuChE = target: T1, BuChE (Equus caballus, UniProt P81908); assay: biochemical; assay type: biochemical; conditions: for Selectivity for BuChE: ratio of IC50 values, AChE over BuChE
T1 construct: electric eel, and horse serum were used as source of AChE and BuChE, respectively; from tissue; host or cells: horse serum
Description: (§1) The target compounds, coumarinyl thiazoles 6(a–o) and coumarinyl oxadiazoles 11(a–h), were screened for their inhibitory activity against AChE and BuChE by Ellman's method.
(§2) For the determination of cholinesterase inhibition, electric eel, and horse serum were used as source of AChE and BuChE, respectively. […] The compounds with 1 Mm concentration were prepared in DMSO. Assay was carried out in 96 well-plate in triplicates. The reaction mixture comprised of 20 μL of buffer (tris HCl 50 mM, 0.02 M MgCl2.6H2O, 0.1 mM NaCl) at pH 8, 10 μL of the test compound, 10 μL enzyme acetylcholine or butyrylcholinesterase of 0.03 U/mL (500 U of AChE and 700 U/mg of BuChE). The contents were incubated for 10 min at 25°C followed by the addition of 1 mM of 10 μL of substrate […] for AChE and butyrylthiocholine iodide for BuChE and incubated again at 25°C for 15 min. A 50 μL of 3 mM DTNB as a coloring agent was added and incubated at 25°C for further 10 min. […] The enzyme dilutions were made by using buffer of pH 8 (tris base 50 mM and having 0.1% BSA).

AChE = target: T2, AChE (Electrophorus electricus, UniProt O42275); assay: biochemical; assay type: biochemical; conditions: for IC50: electric eel AChE, Ellman's method, SEM of three experiments; for Selectivity for AChE: ratio of IC50 values, BuChE over AChE; for fold stronger AChE inhibition than the standard neostigmine: relative to neostigmine
T2 construct: electric eel, and horse serum were used as source of AChE and BuChE, respectively; from tissue; host or cells: electric eel
Description: as §1, §2

[1] = horse serum BuChE, Ellman's method, SEM of three experiments, read-out: BuChE IC50 (μM) ± SEM

T2 sequence (O42275 24-633): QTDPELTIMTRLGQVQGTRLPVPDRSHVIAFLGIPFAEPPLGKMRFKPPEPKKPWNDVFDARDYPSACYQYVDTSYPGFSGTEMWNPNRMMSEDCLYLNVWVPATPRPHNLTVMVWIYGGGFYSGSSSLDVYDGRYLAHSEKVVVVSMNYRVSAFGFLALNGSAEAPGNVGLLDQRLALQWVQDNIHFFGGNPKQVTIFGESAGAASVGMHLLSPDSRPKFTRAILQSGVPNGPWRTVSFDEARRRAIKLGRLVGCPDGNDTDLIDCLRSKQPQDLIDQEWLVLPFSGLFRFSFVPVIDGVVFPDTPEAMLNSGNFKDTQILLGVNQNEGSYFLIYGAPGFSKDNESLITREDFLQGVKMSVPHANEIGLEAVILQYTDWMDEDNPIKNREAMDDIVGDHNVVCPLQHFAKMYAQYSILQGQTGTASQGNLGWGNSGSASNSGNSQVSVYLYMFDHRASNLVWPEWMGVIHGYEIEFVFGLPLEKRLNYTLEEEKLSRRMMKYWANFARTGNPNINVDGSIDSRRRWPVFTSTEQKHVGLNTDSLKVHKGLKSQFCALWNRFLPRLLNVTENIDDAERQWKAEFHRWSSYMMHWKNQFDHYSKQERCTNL
T1 sequence (P81908 whole entry): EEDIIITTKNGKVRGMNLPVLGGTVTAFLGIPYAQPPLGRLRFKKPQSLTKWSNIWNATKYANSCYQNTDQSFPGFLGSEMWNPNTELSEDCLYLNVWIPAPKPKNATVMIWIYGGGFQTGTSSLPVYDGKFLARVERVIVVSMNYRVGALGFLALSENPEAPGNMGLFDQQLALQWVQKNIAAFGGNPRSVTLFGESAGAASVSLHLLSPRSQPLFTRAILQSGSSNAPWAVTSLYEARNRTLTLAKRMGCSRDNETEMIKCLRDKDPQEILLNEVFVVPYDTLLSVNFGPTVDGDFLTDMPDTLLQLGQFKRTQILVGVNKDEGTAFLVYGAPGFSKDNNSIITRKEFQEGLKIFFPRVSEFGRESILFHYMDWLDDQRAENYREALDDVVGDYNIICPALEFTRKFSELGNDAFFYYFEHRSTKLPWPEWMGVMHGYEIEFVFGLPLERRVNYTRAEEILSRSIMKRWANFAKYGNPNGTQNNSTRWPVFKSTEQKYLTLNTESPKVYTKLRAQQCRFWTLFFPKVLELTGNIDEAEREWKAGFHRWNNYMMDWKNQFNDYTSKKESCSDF

In the case of `C/C(=N\Nc1nc(-c2cc3ccccc3oc2=O)cs1)c1ccccc1` [Compound 6a], the IC50 (BuChE; [1]) is reported as 32.7 ± 2.08 µM, the “Selectivity for BuChE” value (BuChE) is reported as 0.51 and the IC50 (AChE) is reported as 16.9 ± 0.32 µM. For the same compound, the “Selectivity for AChE” value (AChE) was 1.93.

`CC(=NNc1nc(-c2cc3ccccc3oc2=O)cs1)c1cccc(N)c1` [Compound 6b] was tested, and the IC50 (BuChE; [1]) was 31.22 ± 0.17 µM, the “Selectivity for BuChE” value (BuChE) was 0.027 and the IC50 (AChE) was 0.87 ± 0.09 µM. The “Selectivity for AChE” value (AChE) was 35.8 and the “fold stronger AChE inhibition than the standard neostigmine” value (AChE) was ~ 32 fold.

In the case of `C/C(=N\Nc1nc(-c2cc3ccccc3oc2=O)cs1)c1ccccc1Br` [Compound 6c], the IC50 (BuChE; [1]) is reported as 19.3 ± 1.42 µM, the “Selectivity for BuChE” value (BuChE) is reported as 1.09 and the IC50 (AChE) is reported as 21.2 ± 0.23 µM. For the same compound, the “Selectivity for AChE” value (AChE) was 0.91.

With `C/C(=N\Nc1nc(-c2cc3ccccc3oc2=O)cs1)c1cccc(Br)c1` [Compound 6d] the “BuChE inhibition, in words” value (BuChE) was “moderate inhibitors”, the IC50 (BuChE; [1]) was 15.2 ± 0.53 µM and the “Selectivity for BuChE” value (BuChE) was 1.98. For the same compound, the IC50 (AChE) was 30.1 ± 1.73 µM and the “Selectivity for AChE” value (AChE) was 0.50.

With `C/C(=N\Nc1nc(-c2cc3ccccc3oc2=O)cs1)c1ccc(Br)cc1` [Compound 6e] the IC50 (BuChE; [1]) was 49.12 ± 0.12 µM, the “Selectivity for BuChE” value (BuChE) was 0.68 and the IC50 (AChE) was 33.42 ± 0.18 µM. The “Selectivity for AChE” value (AChE) was 1.47.

`C/C(=N\Nc1nc(-c2cc3ccccc3oc2=O)cs1)c1ccccc1F` [Compound 6f] was tested, and the IC50 (BuChE; [1]) was 32.1 ± 1.21 µM, the “Selectivity for BuChE” value (BuChE) was 0.71 and the IC50 (AChE) was 23.1 ± 0.32 µM. For the same compound, the “Selectivity for AChE” value (AChE) was 1.39.

In the case of `C/C(=N\Nc1nc(-c2cc3ccccc3oc2=O)cs1)c1ccc(F)cc1` [Compound 6g], the IC50 (BuChE; [1]) is reported as 28.01 ± 0.21 µM, the “Selectivity for BuChE” value (BuChE) is reported as 1.29 and the IC50 (AChE) is reported as 36.34 ± 0.18 µM. The “Selectivity for AChE” value (AChE) was 0.77.

`COc1ccc(C(C)=NNc2nc(-c3cc4ccccc4oc3=O)cs2)cc1` [Compound 6h] was tested, and the “BuChE inhibition, in words” value (BuChE) was “moderate inhibitors”, the IC50 (BuChE; [1]) was 19.32 ± 0.11 µM and the “Selectivity for BuChE” value (BuChE) was 0.055. The IC50 (AChE) was 1.08 ± 0.84 µM, the “Selectivity for AChE” value (AChE) was 17.8 and the “fold stronger AChE inhibition than the standard neostigmine” value (AChE) was 26 fold.

`COc1ccc(/C(C)=N/Nc2nc(-c3cc4ccccc4oc3=O)cs2)cc1F` [Compound 6i] was tested, and the IC50 (BuChE; [1]) was 22.1 ± 1.08 µM, the “Selectivity for BuChE” value (BuChE) was 0.105 and the IC50 (AChE) was 2.34 ± 1.43 µM. For the same compound, the “Selectivity for AChE” value (AChE) was 9.44.

`COc1ccc(/C(C)=N/Nc2nc(-c3cc4ccccc4oc3=O)cs2)c(O)c1` [Compound 6j] was tested, and the IC50 (BuChE; [1]) was 11 ± 3.37 µM, the “Selectivity for BuChE” value (BuChE) was 0.81 and the IC50 (AChE) was 9.05 ± 0.23 µM. For the same compound, the “Selectivity for AChE” value (AChE) was 1.22.

For `COc1cc(C(C)=NNc2nc(-c3cc4ccccc4oc3=O)cs2)ccc1O` [Compound 6k], the IC50 (BuChE; [1]) was 19.1 ± 1.32 µM, the “Selectivity for BuChE” value (BuChE) was 0.303 and the IC50 (AChE) was 5.86 ± 0.15 µM. The “Selectivity for AChE” value (AChE) was 3.29.

`COc1ccc(/C(C)=N/Nc2nc(-c3cc4ccccc4oc3=O)cs2)cc1I` [Compound 6l] was tested, and the IC50 (BuChE; [1]) was 32.1 ± 1.08 µM, the “Selectivity for BuChE” value (BuChE) was 0.42 and the IC50 (AChE) was 13.8 ± 1.58 µM. The “Selectivity for AChE” value (AChE) was 2.32.

For `C/C(=N\Nc1nc(-c2cc3ccccc3oc2=O)cs1)c1ccc(Cl)cc1N` [Compound 6m], the IC50 (BuChE; [1]) was 37.2 ± 0.55 µM, the “Selectivity for BuChE” value (BuChE) was 0.61 and the IC50 (AChE) was 22.74 ± 0.16 µM. The “Selectivity for AChE” value (AChE) was 1.63.

In the case of `O=c1oc2ccccc2cc1-c1csc(NN=C(c2ccccc2)c2ccccc2)n1` [Compound 6n], the IC50 (BuChE; [1]) is reported as 21.6 ± 3.09 µM, the “Selectivity for BuChE” value (BuChE) is reported as 0.51 and the IC50 (AChE) is reported as 11.2 ± 0.17 µM. The “Selectivity for AChE” value (AChE) was 1.94.

For `C/C(=N\Nc1nc(-c2cc3ccccc3oc2=O)cs1)c1cc2ccccc2oc1=O` [Compound 6o], the IC50 (BuChE; [1]) was 23.2 ± 0.29 µM, the “Selectivity for BuChE” value (BuChE) was 0.43 and the IC50 (AChE) was 10.1 ± 1.12 µM. The “Selectivity for AChE” value (AChE) was 2.28.

With `CNCn1nc(-c2cc3ccccc3oc2=O)oc1=S` [Compound 11a] the IC50 (BuChE; [1]) was 0.341 ± 0.06 µM, the “Selectivity for BuChE” value (BuChE) was 17.8 and the IC50 (AChE) was 6.07 ± 0.23 µM. The “Selectivity for AChE” value (AChE) was 0.056.

With `CCCCNCn1nc(-c2cc3ccccc3oc2=O)oc1=S` [Compound 11b] the IC50 (BuChE; [1]) was 0.77 ± 0.08 µM, the “Selectivity for BuChE” value (BuChE) was 12.2 and the IC50 (AChE) was 9.41 ± 0.55 µM. The “Selectivity for AChE” value (AChE) was 0.081.

`Cc1ccc(NCn2nc(-c3cc4ccccc4oc3=O)oc2=S)cc1` [Compound 11c] was tested, and the IC50 (BuChE; [1]) was 8.01 ± 3.58 µM, the “Selectivity for BuChE” value (BuChE) was 2.97 and the IC50 (AChE) was 23.8 ± 0.94 µM. The “Selectivity for AChE” value (AChE) was 0.33.

For `O=c1oc2ccccc2cc1-c1nn(CNc2ccccc2Cl)c(=S)o1` [Compound 11d], the IC50 (BuChE; [1]) was 3.48 ± 1.58 µM, the “Selectivity for BuChE” value (BuChE) was 4.77 and the IC50 (AChE) was 16.6 ± 2.72 µM. The “Selectivity for AChE” value (AChE) was 0.20.

In the case of `O=c1oc2ccccc2cc1-c1nn(CNc2cccc(Cl)c2)c(=S)o1` [Compound 11e], the IC50 (BuChE; [1]) is reported as 0.15 ± 0.09 µM, the “Selectivity for BuChE” value (BuChE) is reported as 82.6 and the “fold more potent against BuChE than neostigmine” value (BuChE; relative to neostigmine) is reported as “about 107 fold”. The IC50 (AChE) was 12.4 ± 0.08 µM and the “Selectivity for AChE” value (AChE) was 0.012.

With `O=c1oc2ccccc2cc1-c1nn(CNc2ccc(Cl)cc2)c(=S)o1` [Compound 11f] the IC50 (BuChE; [1]) was 12.1 ± 1.08 µM, the “Selectivity for BuChE” value (BuChE) was 1.53 and the IC50 (AChE) was 18.6 ± 0.32 µM. The “Selectivity for AChE” value (AChE) was 0.65.

`O=c1oc2ccccc2cc1-c1nn(CN(c2ccccc2)c2ccccc2)c(=S)o1` [Compound 11g] was tested, and the IC50 (BuChE; [1]) was 4.54 ± 0.54 µM, the “Selectivity for BuChE” value (BuChE) was 2.10 and the “AChE inhibition, in words” value (AChE) was “moderate inhibitors”. The IC50 (AChE) was 9.57 ± 1.42 µM and the “Selectivity for AChE” value (AChE) was 0.47.

In the case of `O=c1oc2ccccc2cc1-c1nn(CN2CCOCC2)c(=S)o1` [Compound 11h], the IC50 (BuChE; [1]) is reported as 13.5 ± 0.41 µM, the “Selectivity for BuChE” value (BuChE) is reported as 0.91 and the “AChE inhibition, in words” value (AChE) is reported as “moderate inhibitors”. For the same compound, the IC50 (AChE) was 12.2 ± 1.67 µM and the “Selectivity for AChE” value (AChE) was 1.09.

With `CN(C)C(=O)Oc1cccc([N+](C)(C)C)c1` [Neostigmine, reference compound] the IC50 (BuChE) was 16.1 ± 1.13 µM, the “Selectivity for BuChE” value (BuChE) was 1.75 and the IC50 (AChE) was 28.2 ± 2.01 µM. The “Selectivity for AChE” value (AChE) was 0.57.

— PMC5879128, “Combined in Vitro and in Silico Studies for the Anticholinesterase Activity and Pharmacokinetics of Coumarinyl Thiazoles and Oxadiazoles” (Frontiers in Chemistry, 2018)
